# Source: US10064865B2, “Composition comprising phosphodiesterase type 5 inhibitor for inhibiting apoptosis of nerve cells” (ARIBIO INC., priority 2012, dated 2018)
# Marks after values point to notes of the source that are not given here.
# What was measured:
# [1] = system: neuron apoptosis-operated rats; experiment: Example 1 forelimb placing test; type: in vivo, Sprague-Dawley (SD) rats
# Experimental: Sensorimotor function was evaluated by use of limb placing de Ryck M et al., Stroke. 20:1383-90(1989)) and body swing (Borlongan and Sanberg, J Neurosci. 15:5372-8(1995)) tests. These tests were performed one day before neuron apoptosis to obtain a baseline and then at 1, 3, 7, 14, 21 and 28 days after neuron apoptosis. Behavioral tests were done before drug administration on days when both were scheduled. The investigator performing the surgery and behavioral assessments was blinded to treatment assignment.
# (§1) Limb placing test: Forelimb and hindlimb placement were assessed independently. For the forelimb placing test, the rats were held by their torso with their forepaws hanging free and moved slowly toward the edge of a tabletop, stopping short of touching the vibrissae (for vision-induced placing), touching the vibrissae (for vibrissae-induced placing), making light contact with the front of the forepaw to the edge of the tabletop (for tactile-induced placing), and pressing the forepaws to the edge of the table with increased pressure (for proprioceptive-induced placing). Hindlimb placing was conducted in the same manner as above but with tactile and proprioceptive stimulation applied to the front/top of each hindlimb. Each limb for placing in response to visual, vibrissae, tactile, and proprioceptive stimulation are scored in the following manner (A total of 12 points in forelimb placing test and 6 points in hindlimb placing test means maximal neurological deficit, and 0 points means normal performance):
# Normal performance=0 points;
# Performance with unilateral limb=1 point;
# Performance with a delay (2 seconds) and/or incomplete=2 point;
# All data were expressed as mean±standard deviation (S.D.) of ten rats. Multiple comparison tests for different dose groups were conducted. Variance homogeneity was examined using the Levene test (Levene A, Clin Otalary, 1981; 6:145-51). […] Statistical analyses were conducted using SPSS (Release 14K, SPSS Inc., USA; Ludbrook, Clin Exp Pharmacol Physiol, 1997; 24:294-6). In addition, the percent changes between neuron apoptosis control and mirodenafil treated rats were calculated to help the understanding of the efficacy of test material as follow equation 3. Percentage changes as compared with neuron apoptosis control (%)=[((Data of mirodenafil treated groups−Data of neuron apoptosis control)/Data of neuron apoptosis control)×100] [EQUATION 3]
# [2] = system: neuron apoptosis-operated rats; experiment: Example 2 hindlimb placing test; type: in vivo, Sprague-Dawley (SD) rats
# Experimental: Sensorimotor function was evaluated by use of limb placing (de Ryck M et al., Stroke. 20:1383-90(1989)) and body swing (Borlongan and Sanberg, J Neurosci. 15:5372-8(1995)) tests. These tests were performed at 1 and 28 days after neuron apoptosis. The investigator performing the surgery and behavioral assessments was blinded to treatment assignment.
# as §1, with “manner: normal performance=0 points; performance with unilateral limb=1 point; performance with a delay (2 seconds) and/or incomplete=2 point; no performance=3 points. A” for “manner (A”, “performance.” for “performance):”
# All data were expressed as mean±standard deviation (S.D.) of ten rats. Multiple comparison tests for different dose groups were conducted. Variance homogeneity was examined using the Levene test (Levene A, Clin Otalary, 1981; 6:145-51). […] In addition, the percent changes as compared with neuron apoptosis control and mirodenafil treated rats were calculated to help the understanding of the efficacy of test substances as follow Equation 6 and 7. […]
# [3] = Dissolution of test material in saline; type: physicochemical; conditions: mirodenafil 2HCl
# Experimental: The mirodenafil (mirodenafil 2HCl; SK Chemical Life Science Business, KR) was used in this experiment. […] Mirodenafil was stored at 4° C. in a refrigerator to protect from light and humidity until used. Three different dosages, 0.5, 1 and 2 mg/kg of mirodenafil were directly dissolved in saline and subcutaneously administered in a volume of 1 ml/kg on the dorsal back skins, once a day for 28 days from 24 hrs after stabilization periods from operation. In saline and neuron apoptosis control rats, equal volumes of saline as vehicle were administered, instead of mirodenafil, respectively.
# The mirodenafil (mirodenafil 2HCl; SK Chemical Life Science Business, KR) was used in this experiment. […] Mirodenafil was stored at 4° C. in a refrigerator to protect from light and humidity until used. Mirodenafil were directly dissolved in saline as 1 mg/ml concentrations, and subcutaneously administered in a volume of 1 ml/kg on the dorsal back skins from 24, 72 and 168 hrs after neuron apoptosis, once a day for 14 days, respectively. In saline and neuron apoptosis control rats, equal volumes of saline as vehicle were administered, instead of mirodenafil from 24 hrs after neuron apoptosis for 20 days, respectively.
smiles,measurement,setting,value
"CCCOc1ccc(S(=O)(=O)N2CCN(CCO)CC2)cc1-c1nc2c(CCC)cn(CC)c2c(=O)[nH]1 [Mirodenafil, mirodenafil]",Forelimb placing test score,"[1]; 0.5 mg/kg group, day 1 after operation (before drug administration)",12.00 ± 0.00^d
same,Forelimb placing test score,"[1]; 0.5 mg/kg group, day −1 (baseline)",0.70 ± 0.67
same,Forelimb placing test score,"[1]; 0.5 mg/kg s.c. once a day, day 3 after operation",8.00 ± 1.15^a
same,Forelimb placing test score,"[1]; 0.5 mg/kg s.c. once a day, day 7 after operation",7.80 ± 1.55^a
same,Forelimb placing test score,"[1]; 0.5 mg/kg s.c. once a day, day 14 after operation",6.80 ± 1.14^ac
same,Forelimb placing test score,"[1]; 0.5 mg/kg s.c. once a day, day 21 after operation",6.40 ± 1.17^a
same,Forelimb placing test score,"[1]; 0.5 mg/kg s.c. once a day, day 28 after operation",5.40 ± 1.07^a
same,"forelimb placing test scores, change as compared with neuron apoptosis control","[1]; 0.5 mg/kg, 3 days after surgery",−3.61%
same,"forelimb placing test scores, change as compared with neuron apoptosis control","[1]; 0.5 mg/kg, 7 days after surgery",−10.34%
same,"forelimb placing test scores, change as compared with neuron apoptosis control","[1]; 0.5 mg/kg, 14 days after surgery",−12.82%
same,"forelimb placing test scores, change as compared with neuron apoptosis control","[1]; 0.5 mg/kg, 21 days after surgery",−11.11%
same,"forelimb placing test scores, change as compared with neuron apoptosis control","[1]; 0.5 mg/kg, 28 days after surgery",−12.90%
same,Forelimb placing test score,"[1]; 1 mg/kg group, day 1 after operation (before drug administration)",12.00 ± 0.00^d
same,Forelimb placing test score,"[1]; 1 mg/kg group, day −1 (baseline)",0.70 ± 0.48
same,Forelimb placing test score,"[1]; 1 mg/kg s.c. once a day, day 3 after operation",6.80 ± 1.23^ab
same,Forelimb placing test score,"[1]; 1 mg/kg s.c. once a day, day 7 after operation",6.10 ± 1.20^ab
same,Forelimb placing test score,"[1]; 1 mg/kg s.c. once a day, day 14 after operation",5.30 ± 1.06^ab
same,Forelimb placing test score,"[1]; 1 mg/kg s.c. once a day, day 21 after operation",4.20 ± 1.23^ab
same,Forelimb placing test score,"[1]; 1 mg/kg s.c. once a day, day 28 after operation",2.70 ± 1.06^ab
same,"forelimb placing test scores, change as compared with neuron apoptosis control","[1]; 1 mg/kg, 3 days after surgery",−18.07%
same,"forelimb placing test scores, change as compared with neuron apoptosis control","[1]; 1 mg/kg, 7 days after surgery",−29.89%
same,"forelimb placing test scores, change as compared with neuron apoptosis control","[1]; 1 mg/kg, 14 days after surgery",−32.05%
same,"forelimb placing test scores, change as compared with neuron apoptosis control","[1]; 1 mg/kg, 21 days after surgery",−41.67%
same,"forelimb placing test scores, change as compared with neuron apoptosis control","[1]; 1 mg/kg, 28 days after surgery",−56.45%
same,Forelimb placing test score,"[1]; 2 mg/kg group, day 1 after operation (before drug administration)",12.00 ± 0.00^d
same,Forelimb placing test score,"[1]; 2 mg/kg group, day −1 (baseline)",0.60 ± 0.70
same,Forelimb placing test score,"[1]; 2 mg/kg s.c. once a day, day 3 after operation",6.20 ± 0.92^ab
same,Forelimb placing test score,"[1]; 2 mg/kg s.c. once a day, day 7 after operation",5.70 ± 0.67^ab
same,Forelimb placing test score,"[1]; 2 mg/kg s.c. once a day, day 14 after operation",4.70 ± 0.67^ab
same,Forelimb placing test score,"[1]; 2 mg/kg s.c. once a day, day 21 after operation",4.10 ± 0.88^ab
same,Forelimb placing test score,"[1]; 2 mg/kg s.c. once a day, day 28 after operation",2.60 ± 0.84^ab
same,"forelimb placing test scores, change as compared with neuron apoptosis control","[1]; 2 mg/kg, 3 days after surgery",−25.30%
same,"forelimb placing test scores, change as compared with neuron apoptosis control","[1]; 2 mg/kg, 7 days after surgery",−34.48%
same,"forelimb placing test scores, change as compared with neuron apoptosis control","[1]; 2 mg/kg, 14 days after surgery",−39.74%
same,"forelimb placing test scores, change as compared with neuron apoptosis control","[1]; 2 mg/kg, 21 days after surgery",−43.06%
same,"forelimb placing test scores, change as compared with neuron apoptosis control","[1]; 2 mg/kg, 28 days after surgery",−58.06%
same,"hindlimb placing test scores at 28 days, change as compared with neuron apoptosis control",[2]; 1 mg/kg from 24 hrs after surgery,−65.22%
same,"hindlimb placing test scores at 28 days, change as compared with neuron apoptosis control",[2]; 1 mg/kg from 72 hrs after surgery,−39.13%
same,"hindlimb placing test scores at 28 days, change as compared with neuron apoptosis control",[2]; 1 mg/kg from 168 hrs after surgery,−17.39%
same,solubility in saline,[3],well dissolved in saline
